Each molecule was assayed against T1, Beta-1 adrenergic receptor (Homo sapiens, UniProt P08588) (assay: Tested for binding affinity against cloned human beta-1 adrenergic receptor from CHO cells using [125I]iodocyanopindolol as the radioligand.).
Format: cell-based

T1 sequence (P08588 whole entry): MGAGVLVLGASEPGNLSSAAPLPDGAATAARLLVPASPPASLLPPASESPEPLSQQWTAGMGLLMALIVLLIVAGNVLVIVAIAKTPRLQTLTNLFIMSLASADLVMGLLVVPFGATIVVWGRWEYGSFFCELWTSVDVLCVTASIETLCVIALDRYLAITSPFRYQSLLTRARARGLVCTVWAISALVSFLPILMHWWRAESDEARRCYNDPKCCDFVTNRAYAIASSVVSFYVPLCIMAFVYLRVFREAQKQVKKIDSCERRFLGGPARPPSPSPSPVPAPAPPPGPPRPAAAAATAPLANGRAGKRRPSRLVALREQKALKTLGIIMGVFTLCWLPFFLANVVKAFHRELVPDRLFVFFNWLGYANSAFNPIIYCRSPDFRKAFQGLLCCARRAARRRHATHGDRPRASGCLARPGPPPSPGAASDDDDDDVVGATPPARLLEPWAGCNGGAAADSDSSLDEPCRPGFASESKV

Row | Compound | IC50
1 | O=S(=O)(Nc1ccc(CCNC[C@H](O)COc2ccc(O)cc2)cc1)c1cnc2ccccc2c1 | 500 nM
2 | COc1ccc(S(=O)(=O)Nc2ccc(CCNC[C@H](O)COc3ccc(O)cc3)cc2)cc1 | 140 nM
3 | O=S(=O)(Nc1ccc(CCNC[C@H](O)COc2ccc(O)cc2)cc1)c1ccc(Cl)cc1 | 1000 nM
4 | O=S(=O)(Nc1ccc(CCNC[C@H](O)COc2ccc(O)cc2)cc1)c1cccc(Cl)c1 | 1000 nM
5 | O=S(=O)(Nc1ccc(CCNC[C@H](O)COc2ccc(O)cc2)cc1)c1ccc2ccccc2c1 | 9000 nM
6 | Cc1ccc(S(=O)(=O)Nc2ccc(CCNC[C@H](O)COc3ccc(O)cc3)cc2)cc1 | 150 nM

Each molecule was assayed against T2, Beta-2 adrenergic receptor (Homo sapiens, UniProt P07550) (assay: Compound was tested for agonist activity against cloned human beta-2 adrenergic receptor at a concentration of 1000 nM).
Format: functional
Target sequence in this assay (P07550 whole entry, looked up): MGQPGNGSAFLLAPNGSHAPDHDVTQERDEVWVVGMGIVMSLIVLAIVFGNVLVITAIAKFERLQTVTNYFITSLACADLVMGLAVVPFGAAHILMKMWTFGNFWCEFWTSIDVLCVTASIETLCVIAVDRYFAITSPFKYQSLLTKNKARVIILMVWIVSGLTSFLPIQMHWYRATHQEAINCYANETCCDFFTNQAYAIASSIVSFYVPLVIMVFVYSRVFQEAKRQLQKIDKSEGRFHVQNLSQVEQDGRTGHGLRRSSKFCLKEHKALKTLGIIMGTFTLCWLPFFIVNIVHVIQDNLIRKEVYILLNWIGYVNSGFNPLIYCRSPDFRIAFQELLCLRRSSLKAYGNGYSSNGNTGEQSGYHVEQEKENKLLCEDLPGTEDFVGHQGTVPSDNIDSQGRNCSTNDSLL

Row | Compound | Max stimulation
7 | CCCS(=O)(=O)Nc1ccc(CCNC[C@H](O)COc2ccc(O)cc2)cc1 | 4%

What follows are molecules tested against T2, Beta-2 adrenergic receptor (assay: Compound was tested for agonist activity against cloned human beta-2 adrenergic receptor).
Format: functional
Target sequence in this assay (P07550 whole entry): as the sequence (P07550 whole entry, looked up) above

Row | Compound | EC50
8 | COc1ccc(CC[C@@H](C)NC[C@H](O)COc2ccc(O)cc2)cc1 | 5 nM
9 | COc1ccc(CC[C@@H](C)NC[C@@H](O)COc2ccc(O)cc2)cc1 | 30 nM

Each molecule was assayed against T1, Beta-1 adrenergic receptor (assay: (§1) Compound was tested for agonist activity against cloned human beta-1 adrenergic receptor).

Row | Compound | EC50
10 | O=S(=O)(Nc1ccc(CCNC[C@H](O)COc2ccc(O)cc2)cc1)c1cnc2ccccc2c1 | 300 nM

Each molecule was assayed against T1, Beta-1 adrenergic receptor (assay: as §1).
Format: functional

Row | Compound | EC50 | IC50
11 | O=S(=O)(Nc1ccc(CCNC[C@H](O)COc2ccc(O)cc2)cc1)c1ccc(Br)cc1 | 340 nM | –
12 | COc1ccc(CCCNC[C@H](O)COc2ccc(O)cc2)cc1 | – | 15 nM
13 | O=S(=O)(Nc1ccc(CCNC[C@H](O)COc2ccc(O)cc2)cc1)C1CCCCC1 | 1200 nM | –
14 | O=S(=O)(Nc1ccc(CCNC[C@H](O)COc2ccc(O)cc2)cc1)c1ccc(Cl)cc1 | 450 nM | –

What follows are molecules tested against T1, Beta-1 adrenergic receptor (assay: Compound was tested for binding affinity against cloned human beta-1 adrenergic receptor from CHO cells using [125I]-iodocyanopindolol as radioligand).
Format: cell-based

Row | Compound | IC50
15 | COc1ccc(CC[C@H](C)NC[C@H](O)COc2ccc(O)cc2)cc1 | 10 nM

Each molecule was assayed against T2, Beta-2 adrenergic receptor (assay: Agonist activity against cloned human beta-2 adrenergic receptor as percent activation of adenyl cyclase activity at a concentration of 1000 nM).
Format: functional
Target sequence in this assay (P07550 whole entry, looked up): as above

Row | Compound | Activity
16 | O=S(=O)(Nc1ccc(CCNC[C@H](O)COc2ccc(O)cc2)cc1)c1ccccc1Cl | 2%

Each molecule was assayed against T1, Beta-1 adrenergic receptor (assay: biochemical).

Row | Compound | IC50
17 | O=S(=O)(Nc1ccc(CCNC[C@H](O)COc2ccc(O)cc2)cc1)c1ccc(Cl)c(Cl)c1 | > 10000 nM
18 | O=S(=O)(Nc1ccc(CCNC[C@H](O)COc2ccc(O)cc2)cc1)c1ccc(Br)cc1 | 510 nM
19 | O=S(=O)(Cc1ccccc1)Nc1ccc(CCNC[C@H](O)COc2ccc(O)cc2)cc1 | 60 nM
20 | C[C@@H](CCc1ccc(O)cc1)NC[C@H](O)COc1ccc(O)cc1 | 15 nM
21 | O=S(=O)(Nc1ccc(CCNC[C@H](O)COc2ccc(O)cc2)cc1)C1CCCCC1 | 2000 nM
22 | O=C(Nc1ccc(CCNC[C@H](O)COc2ccc(O)cc2)cc1)c1ccccc1 | 6.7 nM
23 | Nc1ccc(CCNC[C@H](O)COc2ccc(O)cc2)cc1 | 1000 nM
24 | CC(C)S(=O)(=O)Nc1ccc(CCNC[C@H](O)COc2ccc(O)cc2)cc1 | 100 nM
25 | Oc1ccc(CCNC[C@H](O)COc2ccc(O)cc2)cc1 | 900 nM
26 | CS(=O)(=O)Nc1ccc(CCNC[C@H](O)COc2ccc(O)cc2)cc1 | 830 nM
27 | C[C@@H](Cc1ccc(O)cc1)NC[C@H](O)COc1ccc(O)cc1 | 81 nM
28 | CCCS(=O)(=O)Nc1ccc(CCNC[C@H](O)COc2ccc(O)cc2)cc1 | 1000 nM
29 | O=S(=O)(CCc1ccccc1)Nc1ccc(CCNC[C@H](O)COc2ccc(O)cc2)cc1 | 110 nM
30 | O=S(=O)(Nc1ccc(CCNC[C@H](O)COc2ccc(O)cc2)cc1)c1ccccc1 | 180 nM
31 | O=S(=O)(CCCc1ccccc1)Nc1ccc(CCNC[C@H](O)COc2ccc(O)cc2)cc1 | 1000 nM
32 | CC(=O)Nc1ccc(CCNC[C@H](O)COc2ccc(O)cc2)cc1 | 25 nM
33 | O=S(=O)(Nc1ccc(CCNC[C@H](O)COc2ccc(O)cc2)cc1)c1ccccc1Cl | 610 nM
34 | CCCCCS(=O)(=O)Nc1ccc(CCNC[C@H](O)COc2ccc(O)cc2)cc1 | 1000 nM

The molecules below were run against Beta-3 adrenergic receptor (Homo sapiens, UniProt P13945) (assay: Agonist activity against cloned human beta-3 adrenergic receptor).
Chain of Beta-3 adrenergic receptor (P13945 whole entry): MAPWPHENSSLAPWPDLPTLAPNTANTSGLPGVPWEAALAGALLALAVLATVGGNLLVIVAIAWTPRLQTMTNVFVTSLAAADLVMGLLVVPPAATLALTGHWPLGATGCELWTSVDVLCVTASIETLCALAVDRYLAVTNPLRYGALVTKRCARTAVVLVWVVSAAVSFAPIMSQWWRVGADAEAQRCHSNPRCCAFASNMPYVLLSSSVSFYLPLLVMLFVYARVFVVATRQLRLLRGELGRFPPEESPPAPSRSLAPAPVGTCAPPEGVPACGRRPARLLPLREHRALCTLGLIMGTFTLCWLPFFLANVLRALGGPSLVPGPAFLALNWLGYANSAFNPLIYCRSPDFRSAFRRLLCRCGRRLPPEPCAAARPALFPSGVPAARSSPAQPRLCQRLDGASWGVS
Format: functional

Row | Compound | EC50
35 | COc1ccc(CC[C@@H](C)NC[C@H](O)COc2ccc(O)cc2)cc1 | 600 nM
36 | O=S(=O)(Nc1ccc(CCNC[C@H](O)COc2ccc(O)cc2)cc1)c1ccc(Cl)c(Cl)c1 | 58 nM
37 | O=S(=O)(Nc1ccc(CCNC[C@H](O)COc2ccc(O)cc2)cc1)c1ccc(Br)cc1 | 0.77 nM
38 | COc1ccc(CCCNC[C@H](O)COc2ccc(O)cc2)cc1 | 600 nM
39 | O=S(=O)(Cc1ccccc1)Nc1ccc(CCNC[C@H](O)COc2ccc(O)cc2)cc1 | 39 nM
40 | COc1ccc(S(=O)(=O)Nc2ccc(CCNC[C@H](O)COc3ccc(O)cc3)cc2)cc1 | 4.3 nM
41 | C[C@@H](CCc1ccc(O)cc1)NC[C@H](O)COc1ccc(O)cc1 | 12 nM
42 | O=S(=O)(Nc1ccc(CCNC[C@H](O)COc2ccc(O)cc2)cc1)C1CCCCC1 | 1500 nM
43 | O=S(=O)(Nc1ccc(CCNC[C@H](O)COc2ccc(O)cc2)cc1)c1ccc(Cl)cc1 | 4.8 nM
44 | O=C(Nc1ccc(CCNC[C@H](O)COc2ccc(O)cc2)cc1)c1ccccc1 | 62 nM
45 | Nc1ccc(CCNC[C@H](O)COc2ccc(O)cc2)cc1 | 440 nM
46 | CC(C)S(=O)(=O)Nc1ccc(CCNC[C@H](O)COc2ccc(O)cc2)cc1 | 25 nM
47 | Oc1ccc(CCNC[C@H](O)COc2ccc(O)cc2)cc1 | 30 nM
48 | CS(=O)(=O)Nc1ccc(CCNC[C@H](O)COc2ccc(O)cc2)cc1 | 110 nM
49 | C[C@@H](Cc1ccc(O)cc1)NC[C@H](O)COc1ccc(O)cc1 | 25 nM
50 | CCCS(=O)(=O)Nc1ccc(CCNC[C@H](O)COc2ccc(O)cc2)cc1 | 60 nM
51 | COc1ccc(CC[C@H](C)NC[C@H](O)COc2ccc(O)cc2)cc1 | 200 nM
52 | COc1ccc(C[C@H](C)NC[C@H](O)COc2ccc(O)cc2)cc1 | 1000 nM
53 | O=S(=O)(Nc1ccc(CCNC[C@H](O)COc2ccc(O)cc2)cc1)c1cccc(Cl)c1 | 15 nM
54 | O=S(=O)(CCc1ccccc1)Nc1ccc(CCNC[C@H](O)COc2ccc(O)cc2)cc1 | 5.9 nM
55 | COc1ccc(CC[C@H](C)NC[C@@H](O)COc2ccc(O)cc2)cc1 | 2000 nM
56 | O=S(=O)(Nc1ccc(CCNC[C@H](O)COc2ccc(O)cc2)cc1)c1ccccc1 | 6.3 nM
57 | O=S(=O)(Nc1ccc(CCNC[C@H](O)COc2ccc(O)cc2)cc1)c1ccc2ccccc2c1 | 5.4 nM
58 | O=S(=O)(CCCc1ccccc1)Nc1ccc(CCNC[C@H](O)COc2ccc(O)cc2)cc1 | 92 nM
59 | Cc1ccc(S(=O)(=O)Nc2ccc(CCNC[C@H](O)COc3ccc(O)cc3)cc2)cc1 | 2.6 nM
60 | COc1ccc(CC[C@@H](C)NC[C@@H](O)COc2ccc(O)cc2)cc1 | 6000 nM
61 | CC(=O)Nc1ccc(CCNC[C@H](O)COc2ccc(O)cc2)cc1 | 27 nM
62 | O=S(=O)(Nc1ccc(CCNC[C@H](O)COc2ccc(O)cc2)cc1)c1ccccc1Cl | 54 nM
63 | CCCCCS(=O)(=O)Nc1ccc(CCNC[C@H](O)COc2ccc(O)cc2)cc1 | 4000 nM

Each molecule was assayed against T2, Beta-2 adrenergic receptor (assay: biochemical).
Target sequence in this assay (P07550 whole entry): as the sequence (P07550 whole entry, looked up) above
Description: Binding affinity against cloned human beta-2 adrenergic receptor from CHO cells using [125I]iodocyanopindolol as the radioligand

Row | Compound | IC50
64 | O=S(=O)(Nc1ccc(CCNC[C@H](O)COc2ccc(O)cc2)cc1)c1ccc(Cl)c(Cl)c1 | 3000 nM
65 | O=S(=O)(Nc1ccc(CCNC[C@H](O)COc2ccc(O)cc2)cc1)c1ccc(Br)cc1 | 180 nM
66 | COc1ccc(CCCNC[C@H](O)COc2ccc(O)cc2)cc1 | 63 nM
67 | O=S(=O)(Cc1ccccc1)Nc1ccc(CCNC[C@H](O)COc2ccc(O)cc2)cc1 | 21 nM
68 | O=S(=O)(Nc1ccc(CCNC[C@H](O)COc2ccc(O)cc2)cc1)c1cnc2ccccc2c1 | 240 nM
69 | COc1ccc(S(=O)(=O)Nc2ccc(CCNC[C@H](O)COc3ccc(O)cc3)cc2)cc1 | 190 nM
70 | C[C@@H](CCc1ccc(O)cc1)NC[C@H](O)COc1ccc(O)cc1 | 10 nM
71 | O=S(=O)(Nc1ccc(CCNC[C@H](O)COc2ccc(O)cc2)cc1)C1CCCCC1 | 3000 nM
72 | O=S(=O)(Nc1ccc(CCNC[C@H](O)COc2ccc(O)cc2)cc1)c1ccc(Cl)cc1 | 280 nM
73 | O=C(Nc1ccc(CCNC[C@H](O)COc2ccc(O)cc2)cc1)c1ccccc1 | 230 nM
74 | Nc1ccc(CCNC[C@H](O)COc2ccc(O)cc2)cc1 | 500 nM
75 | CC(C)S(=O)(=O)Nc1ccc(CCNC[C@H](O)COc2ccc(O)cc2)cc1 | 58 nM
76 | Oc1ccc(CCNC[C@H](O)COc2ccc(O)cc2)cc1 | 150 nM
77 | CS(=O)(=O)Nc1ccc(CCNC[C@H](O)COc2ccc(O)cc2)cc1 | 220 nM
78 | C[C@@H](Cc1ccc(O)cc1)NC[C@H](O)COc1ccc(O)cc1 | 84 nM
79 | CCCS(=O)(=O)Nc1ccc(CCNC[C@H](O)COc2ccc(O)cc2)cc1 | 500 nM
80 | COc1ccc(CC[C@H](C)NC[C@H](O)COc2ccc(O)cc2)cc1 | 20 nM
81 | O=S(=O)(Nc1ccc(CCNC[C@H](O)COc2ccc(O)cc2)cc1)c1cccc(Cl)c1 | 370 nM
82 | O=S(=O)(CCc1ccccc1)Nc1ccc(CCNC[C@H](O)COc2ccc(O)cc2)cc1 | 120 nM
83 | O=S(=O)(Nc1ccc(CCNC[C@H](O)COc2ccc(O)cc2)cc1)c1ccccc1 | 190 nM
84 | O=S(=O)(Nc1ccc(CCNC[C@H](O)COc2ccc(O)cc2)cc1)c1ccc2ccccc2c1 | 630 nM
85 | O=S(=O)(CCCc1ccccc1)Nc1ccc(CCNC[C@H](O)COc2ccc(O)cc2)cc1 | 130 nM
86 | Cc1ccc(S(=O)(=O)Nc2ccc(CCNC[C@H](O)COc3ccc(O)cc3)cc2)cc1 | 170 nM
87 | CC(=O)Nc1ccc(CCNC[C@H](O)COc2ccc(O)cc2)cc1 | 11 nM
88 | O=S(=O)(Nc1ccc(CCNC[C@H](O)COc2ccc(O)cc2)cc1)c1ccccc1Cl | 100 nM
89 | CCCCCS(=O)(=O)Nc1ccc(CCNC[C@H](O)COc2ccc(O)cc2)cc1 | 250 nM

— ChEMBL document CHEMBL1130810, “Potent, selective benzenesulfonamide agonists of the human beta 3 adrenergic receptor” (Bioorg Med Chem Lett, 1998)
